Biological target: T1, β-catenin/CBP complex (Homo sapiens, UniProt Q92793)
T1 construct: endogenous in cells; host or cells: SW480
Experiment: Co-immunoprecipitation of β-catenin with CBP in SW480 cells
Format: cell-based
Method: FIG. 3. COMPOUND 1 disrupts the β-catenin/CBP complex but not the p300/β-catenin complex. • A. Full-length Xenopus laevis β-catenin (1.1, 2.2, and 3.3 μg) or murine CBP (0.14, 0.28, 0.55, 1.1, and 2.2 μg) plasmids were cotransfected in SW480 cells along with the β-catenin/TCF (1.1 μg) reporter gene construct. Empty pcDNA3 vector was used to equalize the amount of DNA used in each reaction. Dual luciferase assays were performed 24 hours post COMPOUND 1 treatment. All experiments were performed in duplicate and values plotted as means +/−standard deviation. • B. COMPOUND 1 competes with β-catenin for CBP. SW480 cells were treated with 5 or 10 μM of COMPOUND 1 or control (0.5% DMSO). 24 hours post treatment, lysates were incubated with beads coated with either control the antibody, or anti-CBP, or anti-p300 antibodies. Co-immunoprecipitated proteins were subjected to gel electrophoresis and immunoblotting using anti-β-catenin antibodies. The arrows point to the immunoprecipitated β-catenin (doublets). • C. CBP (1-111) is the minimal region of interaction with β-catenin. SW480 cells transfected with a CBP deletion series were subjected to immunoprecipitation using anti-β-catenin antibodies coated on Protein A-agarose beads. The immune complexes were washed and subjected to gel electrophoresis followed by immunoblotting using anti-His antibodies. […]

T1 sequence (Q92793 whole entry, one chain of several): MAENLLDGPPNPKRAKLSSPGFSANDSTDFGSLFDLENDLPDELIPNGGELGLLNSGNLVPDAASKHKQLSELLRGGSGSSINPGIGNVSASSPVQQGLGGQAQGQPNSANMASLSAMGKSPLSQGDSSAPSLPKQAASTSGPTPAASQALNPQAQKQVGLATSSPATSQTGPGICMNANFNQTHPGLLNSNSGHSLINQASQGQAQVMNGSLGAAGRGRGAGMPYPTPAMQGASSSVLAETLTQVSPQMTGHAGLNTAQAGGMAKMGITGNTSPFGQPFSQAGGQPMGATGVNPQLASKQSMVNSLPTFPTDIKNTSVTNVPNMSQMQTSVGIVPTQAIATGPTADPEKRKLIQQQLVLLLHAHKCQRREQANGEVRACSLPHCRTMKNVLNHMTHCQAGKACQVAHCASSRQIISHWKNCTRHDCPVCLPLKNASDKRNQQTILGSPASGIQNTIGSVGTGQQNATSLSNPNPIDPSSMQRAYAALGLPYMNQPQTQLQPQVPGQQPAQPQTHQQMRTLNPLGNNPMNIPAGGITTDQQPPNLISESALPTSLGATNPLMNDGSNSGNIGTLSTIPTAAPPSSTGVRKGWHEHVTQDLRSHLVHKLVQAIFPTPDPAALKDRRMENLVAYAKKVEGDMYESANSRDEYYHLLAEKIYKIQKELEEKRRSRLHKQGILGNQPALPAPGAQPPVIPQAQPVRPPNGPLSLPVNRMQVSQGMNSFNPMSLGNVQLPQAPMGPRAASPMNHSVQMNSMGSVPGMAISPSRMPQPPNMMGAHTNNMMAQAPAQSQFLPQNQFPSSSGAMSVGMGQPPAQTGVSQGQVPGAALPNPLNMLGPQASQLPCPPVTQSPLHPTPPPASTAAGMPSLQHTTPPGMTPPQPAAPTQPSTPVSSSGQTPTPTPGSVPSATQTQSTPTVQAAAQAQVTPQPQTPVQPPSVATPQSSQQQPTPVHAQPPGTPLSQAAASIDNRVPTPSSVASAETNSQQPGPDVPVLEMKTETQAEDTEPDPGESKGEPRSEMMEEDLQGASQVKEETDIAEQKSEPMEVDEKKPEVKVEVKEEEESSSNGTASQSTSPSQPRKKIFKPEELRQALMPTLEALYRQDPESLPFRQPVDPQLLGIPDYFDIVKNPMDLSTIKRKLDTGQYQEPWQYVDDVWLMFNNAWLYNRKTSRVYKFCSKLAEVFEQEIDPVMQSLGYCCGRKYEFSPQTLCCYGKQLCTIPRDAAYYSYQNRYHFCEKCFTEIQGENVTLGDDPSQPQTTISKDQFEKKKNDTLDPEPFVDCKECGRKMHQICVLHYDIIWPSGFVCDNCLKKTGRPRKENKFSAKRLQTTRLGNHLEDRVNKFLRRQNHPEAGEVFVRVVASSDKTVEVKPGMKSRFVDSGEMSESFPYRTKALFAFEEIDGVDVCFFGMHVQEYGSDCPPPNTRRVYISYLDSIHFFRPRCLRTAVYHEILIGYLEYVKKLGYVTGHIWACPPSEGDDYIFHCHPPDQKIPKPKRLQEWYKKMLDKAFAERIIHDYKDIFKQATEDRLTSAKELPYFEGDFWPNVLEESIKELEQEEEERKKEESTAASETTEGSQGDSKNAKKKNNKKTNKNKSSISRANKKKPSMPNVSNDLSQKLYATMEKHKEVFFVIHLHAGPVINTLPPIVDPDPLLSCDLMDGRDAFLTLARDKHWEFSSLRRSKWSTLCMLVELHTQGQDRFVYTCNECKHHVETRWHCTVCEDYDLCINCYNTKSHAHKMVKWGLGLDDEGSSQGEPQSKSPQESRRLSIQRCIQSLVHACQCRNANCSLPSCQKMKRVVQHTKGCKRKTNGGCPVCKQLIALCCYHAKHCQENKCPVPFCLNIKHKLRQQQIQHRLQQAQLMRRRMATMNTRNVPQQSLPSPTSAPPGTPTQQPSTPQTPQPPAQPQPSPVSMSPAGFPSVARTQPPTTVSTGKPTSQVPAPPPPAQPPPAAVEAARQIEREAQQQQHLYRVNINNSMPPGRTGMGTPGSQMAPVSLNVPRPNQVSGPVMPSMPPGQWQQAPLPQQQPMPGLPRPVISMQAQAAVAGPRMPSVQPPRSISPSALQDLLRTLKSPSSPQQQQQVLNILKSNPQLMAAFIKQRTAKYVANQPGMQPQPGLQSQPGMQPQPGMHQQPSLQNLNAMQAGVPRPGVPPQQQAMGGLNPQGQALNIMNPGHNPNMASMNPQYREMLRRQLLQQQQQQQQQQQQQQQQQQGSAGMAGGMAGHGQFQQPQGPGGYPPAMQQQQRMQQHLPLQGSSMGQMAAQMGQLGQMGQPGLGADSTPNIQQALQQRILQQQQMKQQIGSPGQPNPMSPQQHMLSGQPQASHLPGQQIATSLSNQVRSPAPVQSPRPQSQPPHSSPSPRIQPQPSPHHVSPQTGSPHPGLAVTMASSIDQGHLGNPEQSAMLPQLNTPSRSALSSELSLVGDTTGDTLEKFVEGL

O=C1C(Cc2ccc(O)cc2)N2C(=O)CCN(C(=O)NCc3ccccc3)C2CN1Cc1cccc2ccccc12 (centres unmarked) [COMPOUND 1]
CBP fragments binding to immunoprecipitated β-catenin in presence of excess COMPOUND 1 (CBP (1-111), (1-211), (1-351), 50 μM COMPOUND 1): dramatically competed away
Immunoprecipitation of β-catenin with CBP (SW480 cells, 5 or 10 μM, 24 hours, concentration dependent): inhibited

Source: patent US7531320B2, “Modulation of β-catenin/TCF-activated transcription” (priority 2003, dated 2009)
